{"source": "patent US8231887B2", "about": "“Pesticidal compositions” (BASF Corporation, priority 2008, dated 2012)", "key": {"[1]": {"test_system": "cockroaches", "assay": "Topical toxicity test of alcohols and/or PD23 mineral oil, dead at 24 h (Example 10)", "format": "in vivo, Blattella germanica", "method": "(§1) Toxicity evaluations were performed on 7-14 day old adult male and female German cockroaches (SCJ Strain, S.C. Johnson & Son, Racine, Wis.). Approximately 12 cockroaches were transferred to individual 100×20 mm polystyrene Petri dishes and anesthetized with a 15-25 second exposure to carbon dioxide. The inside edge of each Petri dish was lightly coated with mineral oil plus petroleum jelly in a 1:3 (wt/wt) ratio to minimize escape. Anesthetized cockroaches were positioned with their ventral side up, and a 1 μl drop of the diluted test composition was applied to the area between the meso- and metathoracic legs using a Rainin L-10, 10 μl capacity pipette (Rainin Instrument, LLC, Oakland, Calif.). Five replications of 12 male cockroaches were done for each test composition. Separate tests were done using female cockroaches. Results were evaluated at 24 hours following treatment. Cockroaches were scored as either alive (dorsal side up, active movement when abdomen prodded with dissecting probe) or moribund/dead (dorsal side up and no movement when abdomen prodded or ventral side up and insect unable to right itself).\nThe compositions comprising alcohol and/or mineral oil are described in Table 13."}, "[2]": {"test_system": "cockroaches", "assay": "1-propanol and 1-heptanol alone and in combination with Exxsol D95 mineral oil (Example 17)", "format": "in vivo", "settings": "for # dead at 24 h / Proportion dead at 24 h: individual treatment; for synergy with EXXSOL D95: result in words"}, "[3]": {"test_system": "cockroaches", "assay": "LD50 and LD10 of mineral oils and alcohols, dose-response mortality, probit analysis (Example 9)", "format": "in vivo, Blattella germanica", "settings": "95% CI printed in the line below", "method": "In this example, various mineral oils and alcohols were tested to determine, for cockroaches, the LD50 and LD10 for each.\nPD23 and PD28 mineral oils were obtained from Sonneborn LLC, Mahwah, N.J. The physical properties of these oils are shown in Table 11. Each mineral oil was tested to determine the LD50 and LD10 (Table 12).\nThe tested alcohols were obtained from Sigma-Aldrich Corp., St. Louis, Mo. Each alcohol was tested to determine the LD50 and LD10 (Table 12)."}, "[4]": {"test_system": "cockroaches (all male)", "assay": "Topical toxicity test of mineral oil and/or hexylene glycol, isopropyl myristate, dioxane or d-limonene in acetone (Examples 3-6)", "format": "in vivo, Blattella germanica", "settings": "24 hours; for # dead: 1 μl topical, remainder acetone", "method": "as §1, with “itself). […]” for “itself).”\n(§2) Tests were generally performed as described in Example 1, except the number of cockroaches (all male) tested for each composition is set forth below in Table 6, and the compositions were not further diluted with acetone in a 1:1 (wt/wt) ratio prior to testing. The results are shown in Table 6, which lists the number of cockroaches tested for each composition, the number of dead cockroaches out of the total number of cockroaches tested, the square root percent dead cockroaches, the proportion of dead cockroaches, and the arcsine square root percent dead cockroaches.\nas §2, with “7,” for “6,”"}, "[5]": {"settings": "Table 14, composite data of the replicates"}, "[6]": {"settings": "Table 14, composite data, calculated proportion"}}, "note": "Several values for one entry are separate records, joined by “and”; a condition that tells them apart may be missing. Identical values can stand only once."}
{"compound": "1-propanol [Composition 1-propanol]", "values": [{"measurement": "# dead at 24 h", "setting": "[1]; Table 13, per replicate of 10-16 treated cockroaches, mg per insect in the label, listed as 1-propanol (0.45 mg)", "value": "1 and 0 (2×)"}, {"measurement": "Proportion dead at 24 h", "setting": "[1]; Table 13, per replicate, listed as 1-propanol (0.45 mg)", "value": "0.083 and 0.000 (2×)"}, {"measurement": "# dead at 24 h", "setting": "[1]; [5]", "value": 1}, {"measurement": "Proportion dead at 24 h", "setting": "[1]; [6]", "value": 0.028}, {"measurement": "# dead at 24 h", "setting": "[2]; 0.45 mg", "value": 1}, {"measurement": "Proportion dead at 24 h", "setting": "[2]; 0.45 mg", "value": 0.028}, {"measurement": "synergy with EXXSOL D95", "setting": "[2]", "value": "significant synergy"}, {"measurement": "LD10 mg/insect", "setting": "[3]", "value": 0.472, "unit": "mg/insect"}, {"measurement": "LD50 mg/insect", "setting": "[3]", "value": 0.557, "unit": "mg/insect"}]}
{"compound": "CCCCCCCO", "note": "[Composition 1-heptanol, 1-heptanol]", "values": [{"measurement": "# dead at 24 h", "setting": "[1]; [5]", "value": 1}, {"measurement": "Proportion dead at 24 h", "setting": "[1]; [6]", "value": 0.028}, {"measurement": "# dead at 24 h", "setting": "[2]; 0.40 mg", "value": 1}, {"measurement": "Proportion dead at 24 h", "setting": "[2]; 0.40 mg", "value": 0.028}, {"measurement": "synergy with EXXSOL D95", "setting": "[2]", "value": "significant synergy"}]}
{"compound": "C1COCCO1", "note": "[Dioxane (50%), Dioxane]", "values": [{"measurement": "# dead", "setting": "[4]; Table 6, per replicate", "value": "0 (4×) and 1"}, {"measurement": "Arcsine square root % dead", "setting": "[4]; Table 6, per replicate", "value": 0}, {"measurement": "Proportion dead", "setting": "[4]; Table 6, per replicate", "value": 0}, {"measurement": "Square root % dead", "setting": "[4]; Table 6, per replicate", "value": 0}]}
{"compound": "C=C(C)[C@H]1CC=C(C)CC1", "note": "[d-limonene (40%), d-limonene]", "values": [{"measurement": "# dead", "setting": "[4]; Table 7, per replicate", "value": "1 and 0 and 2 (2×)"}, {"measurement": "Arcsine square root % dead", "setting": "[4]; Table 7, per replicate", "value": 0}, {"measurement": "Proportion dead", "setting": "[4]; Table 7, per replicate", "value": 0}, {"measurement": "Square root % dead", "setting": "[4]; Table 7, per replicate", "value": 0}]}
